The values that follow come from patent US8877717B2, “Anti-diabetic extract of rooibos” (Zadec ApS, priority 2007, dated 2014).

Assay [1] can be described thus: Bioassay of purified fractions for anti-diabetic activity. From the text:
The partially purified active extract may be dissolved in methanol, and may be further fractionated by column chromatography, employing silica gel as an adsorption medium and a chloroform/30% methanol mixture as an eluent. A plurality of different fractions may be obtained, and each may be evaluated, by suitable bioassaying procedures, to determine the anti-diabetic activity thereof.
A fraction having anti-diabetic activity may preferably be further fractionated such as by column chromatography using silica gel as an adsorption medium and a 9:1 chloroform:methanol solvent, and the resultant sub-fractions bioassayed for their anti-diabetic activity. A sub-fraction displaying anti-diabetic activity may, if desired, be further fractionated and purified, conveniently using a column chromatographic procedure with silica gel as the adsorption medium and a 9:1 ethylacetate:hexane solvent. The resultant purified fractions may again be evaluated by suitable bioassay procedures for their anti-diabetic activity.

Another assay has as its system diabetic rats. The experiment in a line: Flavonoids administered to diabetic rats (blood sugar). The format is in vivo.

On to `O=C(CCc1ccc(O)c(O)c1)c1c(O)cc(O)c([C@@H]2O[C@H](CO)[C@@H](O)[C@H](O)[C@H]2O)c1O` [aspalathin, 3′-C-fl-D-glucopyranosyl-2′,3,4,4′,6′-pentahydroxydihydrochalcone], for which, in assay [1], the “anti-diabetic activity of purified fraction” value is recorded as “good anti-diabetic activity”. In the assay on diabetic rats (T1D and T2D rats), the “lowering the blood sugar and alleviating diabetic symptoms” value was “effective”. In addition, in the assay with diabetic rats (flavonoids extracted and fractionated from Aspalathus), the “effect in diabetic rats compared with the extract” value is reported as “results similar to those produced by the extract”.
